These results are taken from patent publication US6624149B2, “Method for nucleic acid transfection of cells” (Genteric, Inc., priority 2000, dated 2003).

Format in all cases: in vivo
For experiment [1], the system named is rat salivary gland (submandibular gland). The experiment can be described thus: Intraductal transfection of rat salivary gland with pCMV.FOX.Luc-2, luciferase assay. The conditions noted are these: 48 hours. Here is the method:
Nucleic acid/transition metal enhancer mixtures were prepared by sequentially adding deionized water or a buffered solution, DNA, and a desired transition metal enhancer to a polystyrene tube with mixing. “Free” (i.e., “Naked”) DNA controls were prepared by sequentially adding DNA to water or a buffered solution
Male Sprague-Dawley rats (260-280 g) were fasted the night prior to treatment. After administration of the anesthesia (see Section 6.1.3), both right and left salivary gland ducts (specifically, Wharton's duct) were cannulated with fine polyurethane tubing (i.d. 0.005″) and cemented into the desired location. Atropine was then administered subcutaneously (0.5 mg/kg) and, after eight minutes, 50 μl of the nucleic acid/transition metal enhancer mixture was injected, infused, instilled or administered at the ductal orifice or directly into the duct at any point along its length. See Goldfine, Nature Biotechnology 15:1378, 1997.
Regardless of whether a liposome/transition metal/nucleic acid mixture or a nucleic acid/transition metal enhancer mixture was delivered, the tubing and mixture was kept in place for ten additional minutes after application of the mixture prior to removal. At 48 hours post atropine administration, the rats were anesthetized by intraperitoneal injection of pentobarbital (50 mg/kg). The right and left submandibular glands were surgically removed, and the tissues were assayed for any observable reporter gene (luciferase of hGH) expression using the methods described below.
The presently claimed invention describes a new method using a combination of a transition metal enhancer and a nucleic acid of interest for gene delivery. The present invention provides a method which may enhance gene expression by improving the efficiency of gene delivery. This change in gene expression can be quantitated using various assays, such as the luciferase assay. de Wet et al., Molec. Cell Biol. 7:725, 1987. In various experiments described herein, the right and left submandibular glands were removed from the male Sprague-Dawley rats at 48 hours post administration of the pCMV.FOX.Luc-2 containing solution. In additional experiments other organs, such as the rat lungs, were used.
In experiments in which submandibular glands were tested, the amount of luciferase present in the right and left submandibular gland of each male Sprague-Dawley rat was measured independently and treated as separate, individual experiments (e.g., trials) because the amount of luciferase expressed by one submandibular gland is independent of the amount of luciferase expressed in the other submandibular gland. Therefore, each submandibular gland was independently lysed in lysis buffer (1.0 ml buffer per 0.1 g tissue) to create a lysis homogenate. The lysis buffer contained 100 mM K2PO4 pH 7.0, 1 mM dithiothreitol, and 1% Triton X-100. A 100 μl aliquot of lysis homogenate from each submandibular gland was analyzed for luciferase activity (de Wet et al., Molec. Cell Biol. 7:725, 1987) using a Monolight 2010 luminometer (Analytical Luminescence Laboratories). Accordingly, luciferase light emissions from each aliquot of the lysis homogenate were measured over a ten second period.
Activity was expressed as relative light units, values collectively representing the assay conditions, luciferase concentration, luminometer photomultiplier tube sensitivity and background. Using well known techniques, the luciferase light units may be converted, for example, to picograms of luciferase protein. See, e.g., Felgner et al., U.S. Pat. No. 5,580,899 at Example 13. All experiments were performed in duplicate. In experiments using submandibular glands, data from each individual submandibular gland lysis homogenate is reported as a single trial.

The next experiment relates to rat pancreas. Description: Intraductal transfection of rat pancreas, luciferase assay. To be noted: 64 μg pCMV.FOX.Luc-2 in 100 μL into bile duct, 48 hours, four trials; ZnCl2 absent or 1.8 mM. Here is the method:
Male Sprague-Dawley rats (weighing 260-280 g) were fasted the night prior to treatment. Care was taken to ensure that this procedure was conducted under sterile conditions. After anesthesia (see above) and laparotomy, the distal end of the bile duct (at the level of the duodenum) was ligated, the proximal end of the pancreas (at the porta hepatis level) was temporary blocked by a ligature, a PE-10 tubing was inserted through an incision of the bile duct near the duodenum. 0.1 ml of the selected nucleic acid/transition metal enhancer mixture was injected in a retrograde manner into the duct. Successful injection was confirmed by visible swelling of the gland. For administration to the liver, the proximal portion of the bile duct (prior to its entry into pancreatic tissue) was injected. After DNA delivery, a by-pass operation was done by directly introducing the bile flow to duodenum through the exterior end of the PE-10 tubing. After carefully ensuring the ligatures were secure, 1 ml of ampicillin (15 mg/ml) was injected into the peritoneal cavity and the incision was closed in one layer, combining fascia and skin with 3-0 silk suture. The closed incision was washed with dilute ethanol and the animal was monitored under a heat lamp until it was fully awake and ambulatory. The […] were terminated 48 hours after treatment. […]

The subject of a further experiment is mouse lung. Description: Intra-tracheal transfection of mouse lung, luciferase assay. The conditions noted are these: 3.6 mM zinc chloride. Here is the method:
Male BALB/c mice (specific pathogen free, Charles River Laboratories; 20-21 g) were used in the transfection experiments. Anesthesia was provided for all invasive procedures; animals were terminated by intraperitoneal administration of pentobarbital according to standard protocols. Neck dissections were performed on anesthetized mice using a one centimeter incision through the skin of the anterior neck. […] For comparison, a free nucleic acid solution (150 μl containing 512 μg of DNA) was prepared in sterile water and delivered in a similar manner. After injection, the point of incision was repaired using staples. The mice were terminated within 48 hours after treatment. […] An experiment was conducted to determine if transition metals promote in vivo transfection of the mouse lung. […] The final zinc chloride concentration of this mixture was 3.6 mM. […] For comparison, 150 μl of a DNA solution (354 μg DNA) was also administered to intratracheally to the lungs of four mice. At 48 hours post administration, the tracheal/lung block was dissected and assayed for luciferase specific activity as described above.

Each structure is given as a SMILES string.

For `[Cl-].[Cl-].[Zn+2]` [ZnCl2, zinc chloride], the “Average relative light units” value in experiment [1] (Table 2, metal chloride 0.9 mM, 32 μg DNA in 50 μl, eight glands) is listed as 63842 relative light units; in experiment [1] (Table 3, metal chloride 0.9 mM, 32 μg DNA in 50 μl, Tris-HCl/EDTA, eight glands), 5685 relative light units; in experiment [1] (Table 6, zinc 3.6 mM, 128 μg DNA in 50 μl) it was 243362 relative light units; in experiment [1] (Table 7, ZnCl2 3.6 mM, pH 5.5, 128 μg DNA in 50 μl), 252446 relative light units; in experiment [1] (Table 7, ZnCl2 3.6 mM, pH 6.5, 128 μg DNA in 50 μl) it was 196002 relative light units; in experiment [1] (Table 7, ZnCl2 3.6 mM, pH 7.5, 128 μg DNA in 50 μl) it was 260340 relative light units. In addition, the “Average relative light units” value in experiment [1] (Table 7, ZnCl2 3.6 mM, pH 8.5, 128 μg DNA in 50 μl) was determined as 277958 relative light units. Further, the average luciferase activity with rat pancreas is on record as 22028 relative luciferase light units per 10 mg of pancreatic tissue. For the same molecule, the “Improvement of transfection activity relative to the "free" DNA solution” value in the experiment with mouse lung worked out at 5 fold.
